Test systems include LOX IMVI melanoma; COLO 205 colon; SNB-75 CNS; UACC-62 melanoma; 786-0 renal; DU-145 prostate; NCI-H460 lung; HOP-62 NSCLC; HCC-2998 colon; HCT-116 colon.
Assay in all cases: NCI-60 cell line screen, 48 h

Where “and” joins values, the source holds several entries; their conditions need not be identical. Identical values can stand only once.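 Each compound was tested at five concentrations against cells in 96-well plates for 48 hours. At the GI50, growth is halved. TGI denotes the concentration required for complete inhibition of growth.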

For `COc1c(OC(C)C)cc2cc(O)c(C(=O)NC3Cc4ccc(c(Cl)n4)O[C@@H]4C=C5C#C/C(=C\C#CC6OC56C4OC4CC(C)(O)C(O)C(C)O4)C(OC4CC(O)C(N(C)C)C(C)O4)COC3=O)cc2c1OC` (some centres not stated), the GI50 in the experiment on LOX IMVI melanoma is 0.529 µg/mL; in the experiment with COLO 205 colon, > 36.3 µM and 0.345 µg/mL; in the experiment with SNB-75 CNS, 4.43 µg/mL; in the experiment with UACC-62 melanoma, 4.33 µM and 0.511 µg/mL; with 786-0 renal it was 7.1 µM and 0.244 µg/mL; in the experiment on NCI-H460 lung, 3.81 µM and 0.0528 µg/mL. The GI50 with HOP-62 NSCLC is 10.3 µM and 0.402 µg/mL; with HCC-2998 colon, 21 µg/mL; in the experiment on HCT-116 colon, 0.584 µg/mL. For the same compound, the TGI in the experiment on LOX IMVI melanoma is 17.8 µg/mL; in the experiment with COLO 205 colon it was > 36.3 µM and 13.6 µg/mL; in the experiment on SNB-75 CNS, > 36.3 µM and 19.1 µg/mL; in the experiment with UACC-62 melanoma, 21 µM and 7.44 µg/mL; in the experiment on 786-0 renal it was > 36.3 µM and 2.79 µg/mL; in the experiment with DU-145 prostate it was more than 36300 nM. In addition, the TGI with NCI-H460 lung was > 36.3 µM and 7.13 µg/mL; in the experiment with HOP-62 NSCLC, > 36.3 µM and 1.74 µg/mL; in the experiment with HCC-2998 colon it was > 36.3 µM and 37.5 µg/mL; in the experiment with HCT-116 colon it was 15.7 µg/mL.
Consider `Cc1ccc(-n2c(-c3cc4c([nH]c5ccccc54)c(-c4cccc(O)c4)n3)n[nH]c2=S)cc1`, for which the GI50 in the experiment on LOX IMVI melanoma was 461 nM; in the experiment with COLO 205 colon, 2460 nM; in the experiment on SNB-75 CNS it was 1340 nM; with UACC-62 melanoma, 491 nM; in the experiment with 786-0 renal, 2600 nM; with DU-145 prostate it was 616 nM. The GI50 was 393 nM in the experiment on NCI-H460 lung, 1240 nM in the experiment with HOP-62 NSCLC, 268 nM in the experiment with HCC-2998 colon and 384 nM in the experiment with HCT-116 colon. Besides, the TGI was found to be 1970 nM in the experiment with LOX IMVI melanoma; 8140 nM in the experiment on COLO 205 colon; 6170 nM with SNB-75 CNS; 2570 nM with UACC-62 melanoma; 12800 nM in the experiment on 786-0 renal; 6170 nM in the experiment with DU-145 prostate. The TGI with NCI-H460 lung was 10200 nM; in the experiment on HOP-62 NSCLC it was 4870 nM; with HCC-2998 colon, 838 nM; with HCT-116 colon, 10000 nM.
Regarding `O=C(c1ccco1)c1c(C(F)(F)F)n([O-])c2cc(F)c(F)cc2[n+]1=O`, the TGI came to 459 nM with LOX IMVI melanoma; 3060 nM with COLO 205 colon; 760 nM with UACC-62 melanoma; 137 nM in the experiment on 786-0 renal; 727 nM in the experiment on DU-145 prostate; 5780 nM in the experiment on NCI-H460 lung. Besides, the TGI is 850 nM with HOP-62 NSCLC, 14.5 nM with HCC-2998 colon and 386 nM in the experiment with HCT-116 colon. Further, the GI50 was 229 nM with COLO 205 colon; 242 nM in the experiment with UACC-62 melanoma; 51.2 nM in the experiment on 786-0 renal; 238 nM with DU-145 prostate; 252 nM in the experiment on NCI-H460 lung; 348 nM in the experiment on HOP-62 NSCLC. Further, the GI50 in the experiment with HCT-116 colon was 149 nM.
For `Cc1ccc(Cl)cc1-n1c(C)nc2c(cnn2-c2ccnc3c(C(F)(F)F)cccc23)c1=O`, the GI50 in the experiment with LOX IMVI melanoma, in the experiment on COLO 205 colon, in the experiment on SNB-75 CNS, in the experiment on UACC-62 melanoma, in the experiment on 786-0 renal and in the experiment on DU-145 prostate was more than 100000 nM throughout. In addition, the GI50 with NCI-H460 lung, in the experiment on HOP-62 NSCLC, in the experiment on HCC-2998 colon and in the experiment with HCT-116 colon was more than 100000 nM in each case. The TGI in the experiment with LOX IMVI melanoma, with COLO 205 colon, in the experiment with SNB-75 CNS, in the experiment on UACC-62 melanoma, in the experiment on 786-0 renal and with DU-145 prostate was more than 100000 nM throughout. The TGI in the experiment on NCI-H460 lung, in the experiment on HOP-62 NSCLC, in the experiment on HCC-2998 colon and with HCT-116 colon was more than 100000 nM each time.
Consider `COc1ccc(-c2[nH]c3ccccc3c2/C=C(\C#N)S(=O)(=O)c2ccccc2)cc1`, for which the GI50 was 1230 nM in the experiment on LOX IMVI melanoma; 253 nM in the experiment on COLO 205 colon; 375 nM with SNB-75 CNS; 597 nM in the experiment on UACC-62 melanoma; 844 nM in the experiment with 786-0 renal; 447 nM in the experiment with DU-145 prostate. For the same compound, the GI50 in the experiment on NCI-H460 lung was 404 nM; in the experiment with HOP-62 NSCLC it was 958 nM; in the experiment on HCC-2998 colon, 1110 nM; with HCT-116 colon, 391 nM. Besides, the TGI is more than 100000 nM in the experiment on LOX IMVI melanoma; 670 nM in the experiment on COLO 205 colon; more than 25900 nM with SNB-75 CNS; 16300 nM in the experiment on UACC-62 melanoma; more than 38300 nM in the experiment with 786-0 renal; more than 100000 nM with NCI-H460 lung. Also, the results for the TGI in the experiment with HOP-62 NSCLC, with HCC-2998 colon and with HCT-116 colon were more than 35300 nM, 5990 nM and more than 38000 nM, respectively.
As to `CSC1=Nc2c(c(C)c(-c3ccccc3)n2COC(CO)CO)C2=NC(=O)CN12`, the GI50 is more than 100000 nM in the experiment with LOX IMVI melanoma; more than 100000 nM in the experiment on COLO 205 colon; 58900 nM in the experiment with SNB-75 CNS; more than 100000 nM with UACC-62 melanoma; more than 100000 nM in the experiment on 786-0 renal; more than 100000 nM in the experiment with DU-145 prostate. In addition, the GI50 in the experiment with NCI-H460 lung is more than 100000 nM; in the experiment with HOP-62 NSCLC, 98200 nM; with HCC-2998 colon it was more than 100000 nM; in the experiment with HCT-116 colon, more than 100000 nM. In addition, the TGI in the experiment with LOX IMVI melanoma, in the experiment on COLO 205 colon, in the experiment with SNB-75 CNS, in the experiment with UACC-62 melanoma, in the experiment with 786-0 renal and in the experiment on DU-145 prostate was more than 100000 nM in each case. The TGI in the experiment with NCI-H460 lung, with HOP-62 NSCLC, in the experiment on HCC-2998 colon and in the experiment on HCT-116 colon was more than 100000 nM throughout.
Turning to `Nc1nc2ccccc2c2c1S(=O)(=O)c1ccc(Cl)cc1C2=O`, the GI50 with LOX IMVI melanoma is 873 nM; in the experiment with COLO 205 colon, 1940 nM; in the experiment with UACC-62 melanoma, 1680 nM; in the experiment with 786-0 renal, 5930 nM; with DU-145 prostate, 2130 nM; with NCI-H460 lung it was 1680 nM. Besides, the values for the GI50 in the experiment with HOP-62 NSCLC, in the experiment on HCC-2998 colon and with HCT-116 colon were 2310 nM, 2030 nM and 1870 nM, respectively. Also, the TGI was 1840 nM with LOX IMVI melanoma; 6850 nM in the experiment with COLO 205 colon; 24800 nM in the experiment with UACC-62 melanoma; more than 50000 nM in the experiment on 786-0 renal; more than 50000 nM with DU-145 prostate; 6630 nM in the experiment with NCI-H460 lung. Moreover, the figures for the TGI with HOP-62 NSCLC, in the experiment on HCC-2998 colon and in the experiment with HCT-116 colon were more than 50000 nM, 29800 nM and 32000 nM, respectively.
